How the values were obtained:
[1] = PAMPA permeability, brain polar lipid extract (BPLE) membrane; conditions: for Papp at 4 h, 100 μM: pig, PAMPA
[2] = PAMPA permeability, brain total lipid extract (BTLE) membrane; conditions: for Mean logPe: Brain total lipid extract membrane, n=3; for Papp at 4 h, 100 μM: pig, PAMPA, pH 7.4
[3] = PAMPA permeability, heart polar lipid extract (HPLE) membrane; conditions: for Mean logPe: Heart Polar lipid extract membrane, n=3; for Papp at 4 h, 100 μM: bovine, PAMPA, pH 7.4
[4] = PAMPA permeability, heart total lipid extract (HTLE) membrane; conditions: for Mean logPe / Papp at 4 h, 100 μM: Heart total lipid extract membrane, n=3; for Papp at 4 h, 100 μM: bovine, PAMPA, pH 7.4, Mean Pe, * = not detected at acceptor side, value calculated from limit of detection
[5] = PAMPA permeability, liver polar lipid extract (LPLE) membrane; conditions: for Papp at 4 h, 100 μM: bovine, PAMPA
[6] = PAMPA permeability, liver total lipid extract (LTLE) membrane; conditions: for Papp at 4 h, 100 μM: bovine, PAMPA, pH 7.4
[7] = PAMPA permeability, comparison across the six natural lipid extract membranes; conditions: for dependence of permeability on the lipid extract (PCA biplot): compounds near the abscissa of the PCA biplot, Figure 12; for total-polar permeability comparison: heart, liver and brain extracts, Figure 10A–C
in vitro = conditions: bovine, PAMPA, pH 7.4
[8] = Brain Polar lipid extract membrane, n=3
[9] = pH 7.4, Mean Pe, n=3, * = not detected at acceptor side, value calculated from limit of detection
[10] = Liver total lipid extract membrane, n=3

| Structure (SMILES) | Mean logPe [1, 8] | Papp at 4 h, 100 μM ([1]; pH 7.4) [×10⁻⁶ cm/s] | Mean logPe [2] | Papp at 4 h, 100 μM [2] [×10⁻⁶ cm/s] | Mean logPe [3] | Papp at 4 h, 100 μM [3] [×10⁻⁶ cm/s] | Mean logPe [4] | Papp at 4 h, 100 μM [4] [×10⁻⁶ cm/s] | Papp at 4 h, 100 μM [5, 9] [×10⁻⁶ cm/s] | Mean logPe ([5]; n=3) | Mean logPe [6, 10] | Papp at 4 h, 100 μM [6] [×10⁻⁶ cm/s] | dependence of permeability on the lipid extract (PCA biplot) [7] | Papp at 4 h, 100 μM ([5]; pH 7.4, Mean logPe, n=3) [×10⁻⁶ cm/s] | Mean Pe ([6]; Liver total lipid extract membrane, n=3, * = not detected at acceptor side, value calculated from limit of detection) | total-polar permeability comparison [7] | Papp at 4 h, 100 μM (in vitro) [×10⁻⁶ cm/s] | Papp at 4 h, 100 μM ([1]; pH 7.4, Mean logPe, Brain Polar lipid extract membrane, n=3) [×10⁻⁶ cm/s] | PAMPA permeability on HTLE ([4]; pH 7.4, 4 h, 37 °C, in words (PCA biplot, Figure 11B)) |
| --- | --- | --- | --- | --- | --- | --- | --- | --- | --- | --- | --- | --- | --- | --- | --- | --- | --- | --- | --- |
| CC(C)Cc1ccc(C(C)C(=O)O)cc1 (centres unmarked) [ibuprofen] | -5.12 | 7.64 | -5.05 | 8.97 | -4.62 | 24.2 | -4.76 | 17.3 | 25.1 | -4.61 | -4.54 | 29 | independent of the investigated lipids | – | – | – | – | – | – |
| Cc1c(OCC(F)(F)F)ccnc1C[S+]([O-])c1nc2ccccc2[nH]1 (centres unmarked) [lansoprazole] | -4.58 | 26.6 | -4.54 | 28.6 | -4.74 | 18 | -4.67 | 21.9 | 24.4 | -4.62 | -4.21 | 61.9 | independent of the investigated lipids | – | – | – | – | – | – |
| COc1ccc2c(c1)N(C[C@H](C)CN(C)C)c1ccccc1S2 [levomepromazine] | -4.83 | 15.1 | -4.89 | 15.8 | -5.20 | 6.57 | -4.90 | 13.2 | 28.5 | – | – | < 3.72 | – | 23.4 | < 3,7* 10-6 cm/s | heart total-liver polar | – | – | – |
| O=C1CN=C(c2ccccc2)c2cc([N+](=O)[O-])ccc2N1 [nitrazepam] | -4.67 | 21.5 | -4.47 | 34.1 | -4.54 | – | -4.46 | – | – | -4.60 | -4.26 | – | – | – | – | higher permeability in total lipids | – | – | – |
| O=C1NC(=O)C(c2ccccc2)(c2ccccc2)N1 [phenytoin] | -4.57 | 27.2 | -4.46 | 35.3 | -4.42 | 38.4 | -4.84 | 14.7 | 34.6 | -4.46 | -4.35 | 44.7 | independent of the investigated lipids | – | – | – | – | – | – |
| CC(=O)CC(c1ccccc1)c1c(O)c2ccccc2oc1=O (centres unmarked) [warfarin] | – | 0.47 | -5.62 | 2.43 | -5.50 | 3.25 | – | 0.29 | 7.48 | -5.14 | -4.86 | 13.9 | – | – | – | – | 0.891 | 1.41 | low |

— article PMC10053807, “Natural Lipid Extracts as an Artificial Membrane for Drug Permeability Assay: In Vitro and In Silico Characterization” (Pharmaceutics, 2023)
